Test results reported in PMC6789174 (Drug Design, Development and Therapy, 2019).
Converted amounts (≈) assume the structure as drawn. Read-outs that look alike come from different tables or passages of the source. One block for each molecule: values may come before it.

Key:
porcine α-amylase = biological target: T1, porcine α-amylase (Sus scrofa, UniProt P00690); assay: biochemical
T1 sequence (P00690 16-511): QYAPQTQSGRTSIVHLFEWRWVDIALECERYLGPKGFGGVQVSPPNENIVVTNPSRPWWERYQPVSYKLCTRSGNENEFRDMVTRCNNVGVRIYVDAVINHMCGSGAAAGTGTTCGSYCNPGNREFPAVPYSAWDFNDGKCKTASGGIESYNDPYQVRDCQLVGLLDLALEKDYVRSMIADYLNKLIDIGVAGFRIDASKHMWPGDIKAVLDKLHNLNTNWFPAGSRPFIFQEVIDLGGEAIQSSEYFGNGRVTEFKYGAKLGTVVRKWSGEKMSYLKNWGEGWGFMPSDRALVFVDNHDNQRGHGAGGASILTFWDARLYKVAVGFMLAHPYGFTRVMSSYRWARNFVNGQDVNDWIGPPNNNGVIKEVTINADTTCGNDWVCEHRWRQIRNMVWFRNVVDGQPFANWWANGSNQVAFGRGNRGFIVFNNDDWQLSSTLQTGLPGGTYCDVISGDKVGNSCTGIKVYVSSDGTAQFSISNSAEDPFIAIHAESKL

α-glucosidase = α-glucosidase (Saccharomyces cerevisiae, UniProt P53341); assay: Alpha glucosidase inhibition; format: biochemical
[1] = ABTS free radical scavenging
[2] = DPPH free radical scavenging
[3] = test system: Agrobacterium tumefaction; assay: Anti-bacterial activity, agar well diffusion; format: cell-based
Proteus vulgaris = assay: Anti-bacterial activity, agar well diffusion; format: cell-based
Butyrylcholinesterase = Butyrylcholinesterase (Homo sapiens, UniProt P06276); assay: Anticholinesterase assay; format: biochemical
Staphylococcus aureus = assay: Anti-bacterial activity, agar well diffusion; format: cell-based
Acetylcholinesterase = Acetylcholinesterase (Homo sapiens, UniProt P22303); assay: biochemical
glucose-6-phosphatase = biological target: T2, glucose-6-phosphatase (Homo sapiens, UniProt P35575); assay: Glucose-6-phosphatase activity; format: biochemical; settings: 33°C, pH 6.7, control 72.0
T2 sequence (P35575 1-357): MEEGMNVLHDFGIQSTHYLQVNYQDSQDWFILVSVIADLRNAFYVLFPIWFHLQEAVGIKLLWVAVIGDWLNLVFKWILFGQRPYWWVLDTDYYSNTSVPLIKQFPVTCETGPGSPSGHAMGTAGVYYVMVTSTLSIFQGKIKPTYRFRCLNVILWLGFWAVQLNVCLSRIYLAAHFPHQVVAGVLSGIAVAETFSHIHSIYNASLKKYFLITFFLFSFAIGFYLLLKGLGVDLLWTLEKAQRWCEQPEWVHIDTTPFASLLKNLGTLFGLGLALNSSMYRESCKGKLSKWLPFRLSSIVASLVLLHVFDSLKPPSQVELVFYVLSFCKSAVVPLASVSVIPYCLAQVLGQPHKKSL

[4] = read-out: %Inhibition (mean ± SEM), alpha amylase
[5] = read-out: ZI (Zone of inhibition), Agrobacterium tumefaction
[6] = read-out: ZI (Zone of inhibition), Proteus vulgaris
[7] = read-out: %BChE Inhibition (mean ± SEM)
[8] = read-out: ZI (Zone of inhibition), Staphylococcus aureus
[9] = read-out: %AChE Inhibition (mean ± SEM)

α-glucosidase, sequence (P53341 whole entry): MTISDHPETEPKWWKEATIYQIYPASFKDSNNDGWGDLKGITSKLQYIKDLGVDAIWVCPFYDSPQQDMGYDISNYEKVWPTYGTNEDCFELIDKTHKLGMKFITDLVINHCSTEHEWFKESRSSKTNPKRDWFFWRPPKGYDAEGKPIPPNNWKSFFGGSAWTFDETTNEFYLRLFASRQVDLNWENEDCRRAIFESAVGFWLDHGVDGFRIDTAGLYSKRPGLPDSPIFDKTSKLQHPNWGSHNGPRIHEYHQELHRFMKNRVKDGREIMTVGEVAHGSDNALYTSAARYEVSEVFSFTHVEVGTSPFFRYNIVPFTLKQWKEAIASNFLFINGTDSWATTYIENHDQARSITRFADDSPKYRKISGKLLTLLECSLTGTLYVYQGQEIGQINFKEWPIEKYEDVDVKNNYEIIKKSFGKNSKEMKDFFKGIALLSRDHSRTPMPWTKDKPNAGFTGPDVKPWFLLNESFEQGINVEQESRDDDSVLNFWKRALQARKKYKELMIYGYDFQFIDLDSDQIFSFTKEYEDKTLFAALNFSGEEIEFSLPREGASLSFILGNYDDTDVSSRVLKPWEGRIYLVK
Butyrylcholinesterase, sequence (P06276 29-602): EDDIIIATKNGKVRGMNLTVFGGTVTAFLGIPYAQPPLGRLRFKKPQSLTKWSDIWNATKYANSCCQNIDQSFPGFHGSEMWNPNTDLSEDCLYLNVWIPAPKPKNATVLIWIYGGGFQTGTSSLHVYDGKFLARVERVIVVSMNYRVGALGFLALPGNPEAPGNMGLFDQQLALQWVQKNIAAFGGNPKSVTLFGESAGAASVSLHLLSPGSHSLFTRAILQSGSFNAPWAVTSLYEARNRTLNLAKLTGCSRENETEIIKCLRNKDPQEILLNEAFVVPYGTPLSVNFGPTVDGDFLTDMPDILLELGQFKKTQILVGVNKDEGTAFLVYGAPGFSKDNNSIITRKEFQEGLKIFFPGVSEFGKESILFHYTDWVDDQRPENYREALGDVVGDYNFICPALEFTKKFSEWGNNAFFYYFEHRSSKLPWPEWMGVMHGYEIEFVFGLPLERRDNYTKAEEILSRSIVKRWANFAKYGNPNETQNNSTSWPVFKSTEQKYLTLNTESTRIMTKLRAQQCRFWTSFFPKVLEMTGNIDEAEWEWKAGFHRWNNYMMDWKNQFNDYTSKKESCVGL
Acetylcholinesterase, sequence (P22303 32-614, species assumed): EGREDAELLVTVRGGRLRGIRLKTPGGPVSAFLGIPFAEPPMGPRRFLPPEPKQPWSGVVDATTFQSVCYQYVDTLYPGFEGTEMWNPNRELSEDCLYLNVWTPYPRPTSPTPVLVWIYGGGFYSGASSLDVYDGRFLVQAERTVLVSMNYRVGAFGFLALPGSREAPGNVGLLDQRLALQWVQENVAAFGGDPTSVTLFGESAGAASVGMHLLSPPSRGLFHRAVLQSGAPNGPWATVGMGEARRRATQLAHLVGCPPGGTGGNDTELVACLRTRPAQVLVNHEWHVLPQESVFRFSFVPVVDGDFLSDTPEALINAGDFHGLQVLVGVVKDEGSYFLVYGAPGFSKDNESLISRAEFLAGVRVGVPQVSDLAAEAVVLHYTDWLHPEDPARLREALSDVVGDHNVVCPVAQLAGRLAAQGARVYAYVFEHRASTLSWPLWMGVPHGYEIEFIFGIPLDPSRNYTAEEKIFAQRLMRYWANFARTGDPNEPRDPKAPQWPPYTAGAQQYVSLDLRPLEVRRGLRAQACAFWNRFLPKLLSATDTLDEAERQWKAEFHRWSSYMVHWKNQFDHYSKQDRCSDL

inhibition at 125 µg/mL (porcine α-amylase; [4]): 58.1 ± 1.34%
inhibition at 500 µg/mL (porcine α-amylase; [4]): 73 ± 1.34%
inhibition at 1000 µg/mL (porcine α-amylase; [4]): 88.1 ± 1.13%
%Inhibition (mean ± SEM), alpha glucosidase (α-glucosidase): 94.02 ± 1.23%
%Inhibition (mean ± SEM), alpha glucosidase (α-glucosidase; concentration 125 μg/mL): 59.83 ± 2.04%
%Inhibition (mean ± SEM), alpha glucosidase (α-glucosidase; concentration 250 μg/mL): 68.14 ± 2.18%
%Inhibition (mean ± SEM), alpha glucosidase (α-glucosidase; concentration 500 μg/mL): 79.11 ± 2.12%
Compound: C[C@H]1O[C@H](O[C@H]2[C@H](O)[C@@H](O)[C@@H](O[C@H]3[C@H](O)[C@@H](O)C(O)O[C@@H]3CO)O[C@@H]2CO)[C@H](O)[C@@H](O)[C@@H]1N[C@H]1C=C(CO)[C@@H](O)[C@H](O)[C@H]1O (stereo partly drawn) [Acarbose]

ABTS IC50 [1]: 55 µg/mL
DPPH IC50 [2]: 35 µg/mL
Compound: O=C1O[C@H]([C@@H](O)CO)C(O)=C1O [Ascorbic acid, reference compound]
ABTS % I (mean ± S.E.M) ([1]; concentration 125 μg/mL): 55.30 ± 1.75%
ABTS % I (mean ± S.E.M) ([1]; concentration 250 μg/mL): 70.14 ± 1.16%
ABTS % I (mean ± S.E.M) ([1]; concentration 500 μg/mL): 85.45 ± 1.36%
ABTS % I (mean ± S.E.M) ([1]; concentration 1000 μg/mL): 88.17 ± 0.43%
DPPH % I (mean ± S.E.M) ([2]; concentration 125 μg/mL): 67.40±1.18%
DPPH % I (mean ± S.E.M) ([2]; concentration 250 μg/mL): 76.13±1.45%
DPPH % I (mean ± S.E.M) ([2]; concentration 500 μg/mL): 85.11 ± 1.64%
DPPH % I (mean ± S.E.M) ([2]; concentration 1000 μg/mL): 90.14 ± 0.76%

Compound: S=C(NC(c1ccccn1)C(Cc1ccccc1)Cc1ccccc1)NC(c1ccccn1)C(Cc1ccccc1)Cc1ccccc1 (stereo not drawn) [Compound I, 1,3-bis(2-benzyl-3-phenyl-1-(pyridine-2-yl)propyl)thiourea]
MIC ([3]; read-out: MIC, Agrobacterium tumefaction): 4.02 µg/mL (≈ 6.21 µM)
zone of inhibition at 10 µg/mL [3, 5]: 21 mm
zone of inhibition at 20 µg/mL [3, 5]: 24 mm
zone of inhibition at 30 µg/mL [3, 5]: 26 mm
ABTS IC50 [1]: 66 µg/mL
ABTS % I (mean ± S.E.M) ([1]; concentration 125 μg/mL): 77.55 ± 1.93%
ABTS % I (mean ± S.E.M) ([1]; concentration 250 μg/mL): 78.21 ± 1.21%
ABTS % I (mean ± S.E.M) ([1]; concentration 500 μg/mL): 80.16 ± 2.01%
ABTS % I (mean ± S.E.M) ([1]; concentration 1000 μg/mL): 81.67 ± 1.20%
MIC (Proteus vulgaris; read-out: MIC, Proteus vulgaris): 9.76 µg/mL (≈ 15.1 µM)
zone of inhibition at 10 µg/mL (Proteus vulgaris; [6]): 15 mm
zone of inhibition at 20 µg/mL (Proteus vulgaris; [6]): 22 mm
zone of inhibition at 30 µg/mL (Proteus vulgaris; [6]): 24 mm
IC50 (Butyrylcholinesterase): 309 µM
inhibition at 125 µg/mL (Butyrylcholinesterase; [7]): 48.1 ± 1.08%
inhibition at 250 µg/mL (Butyrylcholinesterase; [7]): 51.4 ± 2.05%
inhibition at 500 µg/mL (Butyrylcholinesterase; [7]): 56.3 ± 1.66%
inhibition at 1000 µg/mL (Butyrylcholinesterase; [7]): 57.81 ± 0.54%
DPPH IC50 [2]: 67 µg/mL
DPPH % I (mean ± S.E.M) ([2]; concentration 125 μg/mL): 78.55 ± 1.73%
DPPH % I (mean ± S.E.M) ([2]; concentration 250 μg/mL): 80.21 ± 1.21%
DPPH % I (mean ± S.E.M) ([2]; concentration 500 μg/mL): 82.16 ± 1.01%
DPPH % I (mean ± S.E.M) ([2]; concentration 1000 μg/mL): 86.67 ± 1.20%
MIC (Staphylococcus aureus; read-out: MIC, Staphylococcus aureus): 19.6 µg/mL (≈ 30.3 µM)
zone of inhibition at 10 µg/mL (Staphylococcus aureus; [8]): 13 mm
zone of inhibition at 20 µg/mL (Staphylococcus aureus; [8]): 16 mm
zone of inhibition at 30 µg/mL (Staphylococcus aureus; [8]): 18 mm
IC50 (Acetylcholinesterase): 1550 µM
%AChE Inhibition (mean ± SEM) (Acetylcholinesterase; concentration 500 μg/mL): 55.59 ± 1.23%
inhibition at 125 µg/mL (Acetylcholinesterase; [9]): 38.6 ± 1.33%
inhibition at 250 µg/mL (Acetylcholinesterase; [9]): 46.1 ± 1.85%
inhibition at 1000 µg/mL (Acetylcholinesterase; [9]): 68.1 ± 1.4%
Total Activity of glucose-6-phosphatase (glucose-6-phosphatase; concentration 125 µg/mL): 34.11 mg of P released per hour
Total Activity of glucose-6-phosphatase (glucose-6-phosphatase; concentration 250 µg/mL): 31.62 mg of P released per hour
Total Activity of glucose-6-phosphatase (glucose-6-phosphatase; concentration 500 µg/mL): 25.31 mg of P released per hour
IC50 (porcine α-amylase): 130 µM
inhibition at 125 µg/mL (porcine α-amylase; read-out: %Inhibition (mean ± SEM), alpha amylase, concentration 125 µg/mL): 60.2 ± 1.03%
inhibition at 250 µg/mL (porcine α-amylase; read-out: %Inhibition (mean ± SEM), alpha amylase, concentration 250 µg/mL): 63.1 ± 1.41%
inhibition at 500 µg/mL (porcine α-amylase; read-out: %Inhibition (mean ± SEM), alpha amylase, concentration 500 µg/mL): 68.1 ± 0.87%
inhibition at 1000 µg/mL (porcine α-amylase; read-out: %Inhibition (mean ± SEM), alpha amylase, concentration 1000 µg/mL): 70.29 ± 0.31%
